Measurements taken from US11691962B2 (eXIthera Pharmaceuticals, Inc., priority 2018, dated 2023).

Columns and labels:
Assay type in all cases: biochemical
Factor XIa = Factor XIa (Homo sapiens (Human), UniProt P03951); assay: Factor XIa enzyme inhibition assay (dose response, fluorogenic AMC substrate); details: read-out: hFXIa IC50
Outline: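 Human FXIa at 0.25 nM final with 50 μM final PyroGlu-Pro-Arg-AMC in 20 mM Hepes pH 7.4, 150 mM NaCl, 0.02% Tween 20. Two-fold serial compound dilutions; fluorescence read every minute for 30 min at 30° C. IC50 from a four-parameter Hill fit.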

Trypsin = assay: Dose response assay for protease inhibitors: trypsin; details: selectivity, trypsin over Factor XIa
Outline: (§1)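 Fluorogenic AMC-peptide cleavage in 20 mM Hepes pH 7.4, 150 mM NaCl, 0.02% Tween 20; 100 μM stock substrate dilution (Glp-Pro-Arg-AMC for thrombin/trypsin; Pro-Phe-Arg-AMC or Boc-Leu-Gly-Arg-AMC for Factor Xa). Enzyme diluted to 0.5 nM, added last to two-fold compound series; kinetic read at 30° C, 30 min (Factor Xa 60 min); IC50 fitted.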

Factor Xa = Factor Xa (Homo sapiens (Human), UniProt P00742); assay: Dose response assay for protease inhibitors: Factor Xa; details: selectivity, Factor Xa over Factor XIa
Chain of Factor Xa (P00742 235-488): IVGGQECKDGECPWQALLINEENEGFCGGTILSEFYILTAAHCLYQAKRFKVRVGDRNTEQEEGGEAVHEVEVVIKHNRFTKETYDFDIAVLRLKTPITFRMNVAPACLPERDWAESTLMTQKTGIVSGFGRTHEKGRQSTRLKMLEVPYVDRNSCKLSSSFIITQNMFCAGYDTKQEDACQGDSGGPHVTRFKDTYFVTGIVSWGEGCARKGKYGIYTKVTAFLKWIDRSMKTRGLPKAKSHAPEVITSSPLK
Chain of Factor Xa (P00742 41-179 partner): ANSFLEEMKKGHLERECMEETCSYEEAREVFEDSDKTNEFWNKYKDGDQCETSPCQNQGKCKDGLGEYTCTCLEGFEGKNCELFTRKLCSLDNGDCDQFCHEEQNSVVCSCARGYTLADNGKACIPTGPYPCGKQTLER
Outline: as §1

Thrombin = Thrombin (Homo sapiens (Human), UniProt P00734); assay: Dose response assay for protease inhibitors: thrombin; details: selectivity, thrombin over Factor XIa
Outline: as §1

Chain of Factor XIa (P03951 388-625): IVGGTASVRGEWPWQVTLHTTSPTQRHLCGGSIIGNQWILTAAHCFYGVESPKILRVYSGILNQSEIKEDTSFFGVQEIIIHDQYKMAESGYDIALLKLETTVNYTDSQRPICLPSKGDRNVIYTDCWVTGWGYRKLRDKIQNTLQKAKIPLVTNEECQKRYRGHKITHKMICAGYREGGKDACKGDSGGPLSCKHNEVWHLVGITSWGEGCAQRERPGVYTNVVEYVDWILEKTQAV
Chain of Factor XIa (P03951 19-387 partner): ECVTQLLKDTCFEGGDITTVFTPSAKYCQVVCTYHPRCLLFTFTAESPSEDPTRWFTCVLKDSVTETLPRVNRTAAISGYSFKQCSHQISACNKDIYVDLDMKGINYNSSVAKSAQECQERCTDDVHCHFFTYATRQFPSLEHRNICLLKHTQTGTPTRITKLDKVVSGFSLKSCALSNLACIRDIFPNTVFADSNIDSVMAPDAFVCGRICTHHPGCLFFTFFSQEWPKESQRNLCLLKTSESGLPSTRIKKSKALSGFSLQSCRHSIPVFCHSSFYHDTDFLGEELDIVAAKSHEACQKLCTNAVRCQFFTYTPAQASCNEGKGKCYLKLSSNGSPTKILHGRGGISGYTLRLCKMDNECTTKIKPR

## CC[C@@H](NC(=O)N1C(=O)[C@H](Cc2cc(C)nc(N)c2)[C@H]1C(=O)N(C)c1ccn(C)n1)c1cc(C)ccc1F [Compound 1-143, (2S,3R)-3-((2-amino-6-methylpyridin-4-yl)methyl)-N2 (1-methyl-1H-pyrazol-3-yl)-N1-((R)-1-(2-fluoro-5-methylphenyl)propyl)-N2-methyl-4-oxoazetidine-1,2-dicarboxamide]
Factor XIa
  IC50: < 10 nM
Trypsin
  Ratio: Trypsin/FXIa: G (“G” indicates 1-100)
Factor Xa
  Ratio: FXa/FXIa: I (“I” indicates > 500)
Thrombin
  Ratio: Thrombin/FXIa: H (“H” indicates 101-1000)

## CC[C@@H](NC(=O)N1C(=O)[C@H](Cc2cc(C)nc(N)c2)[C@H]1C(=O)N(C)c1ccn(C)n1)c1cc(F)ccc1F [Compound 1-144, (2S,3R)-3-((2-amino-6-methylpyridin-4-yl)methyl)-N2-(1-methyl-1H-pyrazol-3-yl)-N1-((R)-1-(2,5-difluorophenyl)propyl)-N2-methyl-4-oxoazetidine-1,2-dicarboxamide]
Factor XIa
  IC50: < 10 nM
Trypsin
  Ratio: Trypsin/FXIa: G (“G” indicates 1-100)
Factor Xa
  Ratio: FXa/FXIa: I (“I” indicates > 500)
Thrombin
  Ratio: Thrombin/FXIa: H (“H” indicates 101-1000)

## CC[C@@H](NC(=O)N1C(=O)[C@H](Cc2cc(C)nc(N)c2)[C@H]1C(=O)N(C)c1ccn(C)n1)c1cccc(F)c1F [Compound 1-146, (2S,3R)-3-((2-amino-6-methylpyridin-4-yl)methyl)-N2-(1-methyl-1H-pyrazol-3-yl)-N1-((R)-1-(2,3-difluorophenyl)propyl)-N2-methyl-4-oxoazetidine-1,2-dicarboxamide]
Factor XIa
  IC50: < 10 nM
Trypsin
  Ratio: Trypsin/FXIa: G (“G” indicates 1-100)
Factor Xa
  Ratio: FXa/FXIa: I (“I” indicates > 500)
Thrombin
  Ratio: Thrombin/FXIa: H (“H” indicates 101-1000)

## CC[C@@H](NC(=O)N1C(=O)[C@H](Cc2cc(C)nc(N)c2)[C@H]1C(=O)N(C)c1ccnn1C)c1cccc(F)c1F [Compound 1-151, (2S,3R)-3-((2-amino-6-methylpyridin-4-yl)methyl)-N2-(1-methyl-1H-pyrazol-5-yl)-N1-((R)-1-(2,3-difluorophenyl)propyl)-N2-methyl-4-oxoazetidine-1,2-dicarboxamide]
Factor XIa
  IC50: < 10 nM
Trypsin
  Ratio: Trypsin/FXIa: G (“G” indicates 1-100)
Factor Xa
  Ratio: FXa/FXIa: I (“I” indicates > 500)
Thrombin
  Ratio: Thrombin/FXIa: I (“I” indicates > 500)

## CC[C@@H](NC(=O)N1C(=O)[C@H](Cc2cc(C)nc(N)c2)[C@H]1C(=O)N(C)c1ccnn1C)c1cc(F)ccc1C [Compound 1-162, (2S,3R)-3-((2-amino-6-methylpyridin-4-yl)methyl)-N2-(1-methyl-1H-pyrazol-5-yl)-N1-((R)-1-(5-fluoro-2-methylphenyl)propyl)-N2-methyl-4-oxoazetidine-1,2-dicarboxamide]
Factor XIa
  IC50: < 10 nM
Trypsin
  Ratio: Trypsin/FXIa: G (“G” indicates 1-100)
Factor Xa
  Ratio: FXa/FXIa: I (“I” indicates > 500)
Thrombin
  Ratio: Thrombin/FXIa: I (“I” indicates > 500)

## CC[C@@H](NC(=O)N1C(=O)[C@H](Cc2cc(C)nc(N)c2)[C@H]1C(=O)N(C)c1ccnn1C)c1cc(F)ccc1F [Compound 1-163, (2S,3R)-3-((2-amino-6-methylpyridin-4-yl)methyl)-N2-(1-methyl-1H-pyrazol-5-yl)-N1-((R)-1-(2,5-difluorophenyl)propyl)-N2-methyl-4-oxoazetidine-1,2-dicarboxamide]
Factor XIa
  IC50: < 10 nM
Trypsin
  Ratio: Trypsin/FXIa: G (“G” indicates 1-100)
Factor Xa
  Ratio: FXa/FXIa: I (“I” indicates > 500)
Thrombin
  Ratio: Thrombin/FXIa: I (“I” indicates > 500)

## CC[C@@H](NC(=O)N1C(=O)[C@H](Cc2cc(C)nc(N)c2)[C@H]1C(=O)N(C)c1cnn(C)c1)c1cc(F)ccc1F [Compound 1-182, (2S,3R)-3-((2-amino-6-methylpyridin-4-yl)methyl)-N2-(1-methyl-1H-pyrazol-4-yl)-N1-((R)-1-(2,5-difluorophenyl)propyl)-N2-methyl-4-oxoazetidine-1,2-dicarboxamide]
Factor XIa
  IC50: < 10 nM
Trypsin
  Ratio: Trypsin/FXIa: G (“G” indicates 1-100)
Factor Xa
  Ratio: FXa/FXIa: I (“I” indicates > 500)
Thrombin
  Ratio: Thrombin/FXIa: H (“H” indicates 101-1000)

## CC[C@@H](NC(=O)N1C(=O)[C@H](Cc2cc(C)nc(N)c2)[C@H]1C(=O)N(C)c1cnn(C)c1)c1cc(C)cc(F)c1 [Compound 1-184, (2S,3R)-3-((2-amino-6-methylpyridin-4-yl)methyl)-N2-(1-methyl-1H-pyrazol-4-yl)-N1-((R)-1-(3-fluoro-5-methylphenyl)propyl)-N2-methyl-4-oxoazetidine-1,2-dicarboxamide]
Factor XIa
  IC50: < 10 nM
Trypsin
  Ratio: Trypsin/FXIa: G (“G” indicates 1-100)
Factor Xa
  Ratio: FXa/FXIa: I (“I” indicates > 500)
Thrombin
  Ratio: Thrombin/FXIa: H (“H” indicates 101-1000)

## CC[C@@H](NC(=O)N1C(=O)[C@H](Cc2cc(C)nc(N)c2)[C@H]1C(=O)N(C)c1cnn(C)c1)c1cc(C)cc(C)c1 [Compound 1-185, (2S,3R)-3-((2-amino-6-methylpyridin-4-yl)methyl)-N2-(1-methyl-1H-pyrazol-4-yl)-N1-((R)-1-(3,5-dimethylphenyl)propyl)-N2-methyl-4-oxoazetidine-1,2-dicarboxamide]
Factor XIa
  IC50: < 10 nM
Trypsin
  Ratio: Trypsin/FXIa: G (“G” indicates 1-100)
Factor Xa
  Ratio: FXa/FXIa: I (“I” indicates > 500)
Thrombin
  Ratio: Thrombin/FXIa: H (“H” indicates 101-1000)

## CC[C@@H](NC(=O)N1C(=O)[C@H](Cc2ccnc(N)c2)[C@H]1C(=O)N(C)c1nccn1C)c1cc(F)c(F)c(F)c1 [Compound 1-193, (2S,3R)-3-((2-aminopyridin-4-yl)methyl)-N2-(1-methyl-1H-imidazol-2-yl)-N1-((R)-1-(3,4,5-trifluorophenyl)propyl)-N2-methyl-4-oxoazetidine-1,2-dicarboxamide]
Factor XIa
  IC50: < 10 nM
Trypsin
  Ratio: Trypsin/FXIa: G (“G” indicates 1-100)
Factor Xa
  Ratio: FXa/FXIa: I (“I” indicates > 500)
Thrombin
  Ratio: Thrombin/FXIa: H (“H” indicates 101-1000)

## CC[C@@H](NC(=O)N1C(=O)[C@H](Cc2ccnc(N)c2)[C@H]1C(=O)N(C)c1nccn1C)c1ccc(F)c(C)c1F [Compound 1-194, (2S,3R)-3-((2-aminopyridin-4-yl)methyl)-N2-(1-methyl-1H-imidazol-2-yl)-N1-((R)-1-(2,4-difluoro-3-methylphenyl)propyl)-N2-methyl-4-oxoazetidine-1,2-dicarboxamide]
Factor XIa
  IC50: < 10 nM
Trypsin
  Ratio: Trypsin/FXIa: H (“H” indicates 101-1000)
Factor Xa
  Ratio: FXa/FXIa: I (“I” indicates > 500)
Thrombin
  Ratio: Thrombin/FXIa: H (“H” indicates 101-1000)

## CC[C@@H](NC(=O)N1C(=O)[C@H](Cc2ccnc(N)c2)[C@H]1C(=O)N(C)c1ccn(C)n1)c1cc(F)c(F)c(F)c1 [Compound 1-197, (2S,3R)-3-((2-aminopyridin-4-yl)methyl)-N2-(1-methyl-1H-pyrazol-3-yl)-N1-((R)-1-(3,4,5-trifluorophenyl)propyl)-N2-methyl-4-oxoazetidine-1,2-dicarboxamide]
Factor XIa
  IC50: < 10 nM
Trypsin
  Ratio: Trypsin/FXIa: H (“H” indicates 101-1000)
Factor Xa
  Ratio: FXa/FXIa: I (“I” indicates > 500)
Thrombin
  Ratio: Thrombin/FXIa: I (“I” indicates > 500)

## CC[C@@H](NC(=O)N1C(=O)[C@H](Cc2ccnc(N)c2)[C@H]1C(=O)N(C)c1ccn(C)n1)c1ccc(F)c(C)c1F [Compound 1-198, (2S,3R)-3-((2-aminopyridin-4-yl)methyl)-N2-(1-methyl-1H-pyrazol-3-yl)-N1-((R)-1-(2,4-difluoro-3-methylphenyl)propyl)-N2-methyl-4-oxoazetidine-1,2-dicarboxamide]
Factor XIa
  IC50: < 10 nM
Trypsin
  Ratio: Trypsin/FXIa: H (“H” indicates 101-1000)
Factor Xa
  Ratio: FXa/FXIa: I (“I” indicates > 500)
Thrombin
  Ratio: Thrombin/FXIa: H (“H” indicates 101-1000)

## CC[C@@H](NC(=O)N1C(=O)[C@H](Cc2ccnc(N)c2)[C@H]1C(=O)N(C)c1cnn(C)c1)c1cc(F)c(F)c(F)c1 [Compound 1-199, (2S,3R)-3-((2-aminopyridin-4-yl)methyl)-N2-(1-methyl-1H-pyrazol-4-yl)-N1-((R)-1-(3,4,5-trifluorophenyl)propyl)-N2-methyl-4-oxoazetidine-1,2-dicarboxamide]
Factor XIa
  IC50: < 10 nM
Trypsin
  Ratio: Trypsin/FXIa: H (“H” indicates 101-1000)
Factor Xa
  Ratio: FXa/FXIa: I (“I” indicates > 500)
Thrombin
  Ratio: Thrombin/FXIa: H (“H” indicates 101-1000)

## CC[C@@H](NC(=O)N1C(=O)[C@H](Cc2ccnc(N)c2)[C@H]1C(=O)N(C)c1ccnn1C)c1ccc(F)c(C)c1F [Compound 1-200]
Factor XIa
  IC50: < 10 nM
Trypsin
  Ratio: Trypsin/FXIa: H (“H” indicates 101-1000)
Factor Xa
  Ratio: FXa/FXIa: I (“I” indicates > 500)
Thrombin
  Ratio: Thrombin/FXIa: I (“I” indicates > 500)
